Results: ChEMBL document CHEMBL1201862, “PubChem BioAssay data set” (2004)
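Growth conditions: 96-well plates. Treatment: test compound, 48 hours, 5 concentrations. Analysis: linear interpolation between bracketing concentrations; unreached endpoints set to highest concentration. Here, GI50 denotes the concentration required for 50% inhibition of growth.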 Active and inactive are the calls of the source. Rule as the data show it: active = GI50 up to about 1.1 µM and inactive = higher.

How the values were obtained:
Assay in all cases: DTP human tumour cell line panel, 48 h
A549 = test system: A549
CAKI-1 = test system: CAKI-1
COLO 205 = test system: COLO 205
HCT-116 = test system: HCT-116
HCT-15 = test system: HCT-15
HOP-92 = test system: HOP-92
HT-29 = test system: HT-29
KM12 = test system: KM12
M14 = test system: M14
MCF7 = test system: MCF7
NCI-H226 = test system: NCI-H226
NCI-H460 = test system: NCI-H460
NCI-H522 = test system: NCI-H522
NCI/ADR-RES = test system: NCI/ADR-RES
OVCAR-3 = test system: OVCAR-3
RXF 393 = test system: RXF 393
SF-295 = test system: SF-295
SK-MEL-28 = test system: SK-MEL-28
SK-MEL-5 = test system: SK-MEL-5
UACC-257 = test system: UACC-257

SMILES	GI50 (A549)	GI50 (CAKI-1)	GI50 (COLO 205)	GI50 (HCT-116)	GI50 (HCT-15)	GI50 (HOP-92)	GI50 (HT-29)	GI50 (KM12)	GI50 (M14)	GI50 (MCF7)	GI50 (NCI-H226)	GI50 (NCI-H460)	GI50 (NCI-H522)	GI50 (NCI/ADR-RES)	GI50 (OVCAR-3)	GI50 (RXF 393)	GI50 (SF-295)	GI50 (SK-MEL-28)	GI50 (SK-MEL-5)	GI50 (UACC-257)
O=C(O)c1cc(CCc2cc(O)ccc2O)ccc1O	> 100 µM (inactive)	> 100 µM (inactive)	> 100 µM (inactive)	> 100 µM (inactive)	> 100 µM	> 100 µM (inactive)	> 100 µM (inactive)	> 100 µM (inactive)	> 100 µM (inactive)	> 100 µM (inactive)	> 100 µM (inactive)	> 100 µM (inactive)	> 100 µM (inactive)	> 100 µM (inactive)	> 100 µM (inactive)	> 100 µM (inactive)	> 100 µM (inactive)	> 100 µM (inactive)	> 100 µM (inactive)	> 100 µM (inactive)
N#Cc1c(C#N)c(SSc2c(C#N)c(C#N)c(N)n2-c2ccccc2)n(-c2ccccc2)c1N	36 µM (inactive)	2.14 µM (inactive)	1.99 µM (inactive)	3.33 µM (inactive)	2.77 µM	2.08 µM (inactive)	40.5 µM (inactive)	25.4 µM (inactive)	7.69 µM (inactive)	2.39 µM (inactive)	22.3 µM (inactive)	30.6 µM (inactive)	3.47 µM (inactive)	33.8 µM (inactive)	16.7 µM (inactive)	18.3 µM (inactive)	24.9 µM (inactive)	20.3 µM (inactive)	6.22 µM (inactive)	24.8 µM (inactive)
COc1nc(OC)nc(-c2cccc(F)c2)n1	17.1 µM (inactive)	< 0.01 µM (active)	15.4 µM (inactive)	16.7 µM (inactive)	13.7 µM	6.41 µM (inactive)	17.1 µM (inactive)	15.7 µM (inactive)	18 µM (inactive)	15.9 µM (inactive)	13.4 µM (inactive)	14.9 µM (inactive)	18.7 µM (inactive)	14.3 µM (inactive)	13.8 µM (inactive)	15.9 µM (inactive)	13.4 µM (inactive)	19 µM (inactive)	15.6 µM (inactive)	14.3 µM (inactive)
CCCCCCCCCCCCCC(=O)N(CCCCCCCCC)CC(O)C(O)C(OC1OC(CO)C(O)C(O)C1O)C(O)CO (configuration not stated)	22.3 µM (inactive)	16.9 µM (inactive)	20.5 µM (inactive)	17.4 µM (inactive)	23.6 µM	17.3 µM (inactive)	18.5 µM (inactive)	17.7 µM (inactive)	20.1 µM (inactive)	36.5 µM (inactive)	18.7 µM (inactive)	20.1 µM (inactive)	23 µM (inactive)	18.8 µM (inactive)	26.6 µM (inactive)	24.3 µM (inactive)	20.7 µM (inactive)	18.1 µM (inactive)	19.5 µM (inactive)	17.1 µM (inactive)
CCC1(O)CC2CC(=O)OC2C1O (configuration not stated)	> 100 µM (inactive)	> 100 µM (inactive)	> 100 µM (inactive)		> 100 µM	> 100 µM (inactive)	> 100 µM (inactive)	> 100 µM (inactive)	> 100 µM (inactive)	> 100 µM (inactive)	> 100 µM (inactive)	> 100 µM (inactive)	> 100 µM (inactive)	> 100 µM (inactive)	> 100 µM (inactive)	> 100 µM (inactive)	> 100 µM (inactive)	> 100 µM (inactive)	> 100 µM (inactive)	> 100 µM (inactive)
O=C1/C(=C/c2ccc3c(c2)OCO3)Sc2scc(-c3ccc(O)c(O)c3)[n+]21	11.1 µM (inactive)	1.53 µM (inactive)	2.55 µM (inactive)	1.96 µM (inactive)	1.63 µM	2.65 µM (inactive)	3.74 µM (inactive)	2.65 µM (inactive)	3 µM (inactive)	3.22 µM (inactive)	13.3 µM (inactive)	3.56 µM (inactive)	1.04 µM (active)	1.87 µM (inactive)	4.61 µM (inactive)	3.11 µM (inactive)	10 µM (inactive)	3.08 µM (inactive)	2.54 µM (inactive)	3.6 µM (inactive)
C/C(=C\c1ccccc1)C(=O)NCc1ccc(C(=O)NCCC(C)C)cc1	> 100 µM (inactive)	93.8 µM (inactive)	> 100 µM (inactive)	65 µM (inactive)	> 100 µM	49.5 µM (inactive)	41.8 µM (inactive)	> 100 µM (inactive)	> 100 µM (inactive)	> 100 µM (inactive)	40.5 µM (inactive)	> 100 µM (inactive)	> 100 µM (inactive)	45.5 µM (inactive)	> 100 µM (inactive)	20.8 µM (inactive)	37 µM (inactive)	> 100 µM (inactive)	> 100 µM (inactive)	> 100 µM (inactive)
CC(=C/C=C/C=C(C)\C=C\C=C(\C)C(=O)O)/C=C/C=C(/C)C(=O)O	> 100 µM (inactive)	> 100 µM (inactive)	> 100 µM (inactive)	> 100 µM (inactive)	> 100 µM	> 100 µM (inactive)	> 100 µM (inactive)	> 100 µM (inactive)	> 100 µM (inactive)	> 100 µM (inactive)	> 100 µM (inactive)	> 100 µM (inactive)	> 100 µM (inactive)	> 100 µM (inactive)	> 100 µM (inactive)	> 100 µM (inactive)	> 100 µM (inactive)	> 100 µM (inactive)	> 100 µM (inactive)	> 100 µM (inactive)
O=c1oc2ccccc2cc1P(=O)(O)O	> 100 µM (inactive)	> 100 µM (inactive)	> 100 µM (inactive)	> 100 µM (inactive)	> 100 µM	> 100 µM (inactive)	> 100 µM (inactive)		> 100 µM (inactive)	> 100 µM (inactive)	> 100 µM (inactive)	> 100 µM (inactive)	> 100 µM (inactive)	> 100 µM (inactive)	> 100 µM (inactive)	> 100 µM (inactive)	> 100 µM (inactive)	> 100 µM (inactive)	> 100 µM (inactive)	> 100 µM (inactive)
C1=CN2C[n+]3cccc(OCc4ccccc4)c3N=C2C(OCc2ccccc2)=C1	19.5 µM (inactive)	22 µM (inactive)	3.88 µM (inactive)	23.3 µM (inactive)	> 100 µM	12.5 µM (inactive)	8.04 µM (inactive)		16.4 µM (inactive)	13.5 µM (inactive)	29.4 µM (inactive)	32.6 µM (inactive)	2.65 µM (inactive)	> 100 µM (inactive)	5.14 µM (inactive)	44.9 µM (inactive)	6.84 µM (inactive)	14.2 µM (inactive)	5 µM (inactive)	8.71 µM (inactive)
